Where “and” joins values, the source holds several entries; their conditions need not be identical. Equal entries are not always repeated.
Conditions: Liquid, Vibrating tube method

OCC(O)CO [glycerol]
mass density
Conditions | 298.15 K | 303.15 K | 308.15 K | 313.15 K | 318.15 K | 328.15 K | 338.15 K | 348.15 K
100 kPa | 1258.4 kg/m3 and 1259.1 kg/m3 | 1255.7 kg/m3 | 1252.9 kg/m3 and 1253 kg/m3 | 1250.1 kg/m3 | 1247 kg/m3 | 1240.9 kg/m3 | 1234.8 kg/m3 | 1228.7 kg/m3
5000 kPa | 1260.7 kg/m3 and 1260.6 kg/m3 | 1257.8 kg/m3 | 1254.9 kg/m3 and 1254.6 kg/m3 | 1251.8 kg/m3 | 1248.5 kg/m3 | 1242.5 kg/m3 | 1236.4 kg/m3 | 1230.4 kg/m3
10000 kPa | 1262.3 kg/m3 and 1262.1 kg/m3 | 1259.3 kg/m3 | 1256.3 kg/m3 and 1256.1 kg/m3 | 1253.4 kg/m3 | 1250.1 kg/m3 | 1244.1 kg/m3 | 1238.1 kg/m3 | 1232.1 kg/m3
15000 kPa | 1263.7 kg/m3 and 1263.6 kg/m3 | 1260.8 kg/m3 | 1257.9 kg/m3 and 1257.6 kg/m3 | 1254.9 kg/m3 | 1251.6 kg/m3 | 1245.6 kg/m3 | 1239.6 kg/m3 | 1233.6 kg/m3
20000 kPa | 1265.2 kg/m3 and 1265.1 kg/m3 | 1262.3 kg/m3 | 1259.4 kg/m3 and 1259.1 kg/m3 | 1256.4 kg/m3 | 1253.2 kg/m3 | 1247.2 kg/m3 | 1241.3 kg/m3 | 1235.3 kg/m3
25000 kPa | 1266.6 kg/m3 and 1266.5 kg/m3 | 1263.7 kg/m3 | 1260.8 kg/m3 and 1260.6 kg/m3 | 1257.9 kg/m3 | 1254.7 kg/m3 | 1248.8 kg/m3 | 1242.9 kg/m3 | 1237.1 kg/m3

— the NIST ThermoML archive (doi:10.1016/j.jct.2016.05.006)
